Structures are written as SMILES. pIC50: −log10 of the molar value.

Data on twelve molecules can be found in BindingDB's records for doi:10.1021/acs.jmedchem.0c00899 (Ut Southwestern Medical Center, 2020).

The nature of experiment [1]: Inhibition of SCD in human NCI-H1155 cells non-expressing CYP4F11 assessed as reduction in cell viability incubated for 96 hrs by cell titer Glo reagent based assay. Background: In ATP-based viability assays light output follows the ATP content of the culture.
Experiment [2] is described as follows: Inhibition of SCD in human NCI-H2122 cells expressing CYP4F11 assessed as reduction in cell viability incubated for 96 hrs by cell titer Glo reagent based assay.
Experiment [3] in a line: Inhibition of SCD in human H2009 cells non-expressing CYP4F11 assessed as reduction in cell viability incubated for 96 hrs by cell titer Glo reagent based assay.

Broadly, the pIC50 is the IC50 on a negative log10 scale, so that one unit is a factor of ten. As to `Cc1nnc(-c2ccc(N3CCC(Oc4cc(F)ccc4Cl)CC3)nn2)o1`, the pIC50 in experiment [1] and in experiment [2] was more than 8.00 throughout.
As for `COc1ccc2nc(NC(=O)c3cccnc3)sc2c1`, the results for the pIC50 in experiment [2] and in experiment [3] were 5.96 and 4.43, respectively.
Regarding `COc1ccc2nc(NC(=O)c3ccc(C(=O)N4CCN(C)CC4)cc3)sc2c1`, the pIC50 in experiment [2] and in experiment [3] was less than 4.30 throughout.
As to `O=C(Nc1nc2ccccc2s1)c1cccnc1`, the pIC50 in experiment [2] was 6.59; in experiment [3] it was less than 4.30.
In the case of `O=C(Nc1nc2ccccc2[nH]1)c1ccc(C(=O)c2ccccc2)cc1`, the values for the pIC50 in experiment [2] and in experiment [3] were 7.38 and 5.74, respectively.
As to `O=C(Nc1nc2ccccc2o1)c1ccc(C(=O)c2ccccc2)cc1`, in experiment [2], the pIC50 is 4.37.
For the molecule `O=C(Nc1nccs1)c1ccc(C(=O)c2ccccc2)cc1`, the pIC50 was 4.48 in experiment [2] and less than 4.30 in experiment [3].
On the same counts, the results for `O=C(Nc1ncc(-c2ccccc2)s1)c1ccc(C(=O)c2ccccc2)cc1` are 5.24 and 5.30.
As to `O=C(Nc1nc(-c2ccccc2)cs1)c1ccc(C(=O)c2ccccc2)cc1`, the values for the pIC50 in experiment [2] and in experiment [3] were 5.33 and 4.83, respectively.
For `COc1ccc(C(=O)Nc2nc3cc(N)ccc3s2)cc1` the same measures were less than 4.30 and less than 4.30.
Turning to `COc1ccc2nc(NC(=O)CCc3ccccc3)sc2c1`, the pIC50 in experiment [2] was less than 4.30.
In the case of `COc1ccc2nc(NS(=O)(=O)c3ccccc3)sc2c1`, the pIC50 in experiment [2] was less than 4.30.
